{
  "source": "patent US9738677B2",
  "about": "“Amphotericin B derivative with reduced toxicity” (priority 2014, dated 2017)",
  "key": {"[1]": {"assay": "ITC sterol binding, POPC LUVs containing 10% cholesterol", "description": "Isothermal Titration calorimetry (ITC)\nIn an optimized isothermal titration calorimetry (ITC)-based assay, an aqueous solution of AmB was titrated with a suspension of large unilamellar vesicles (LUVs) comprised of only 1-palmitoyl-2-oleoyl-sn-glycero-3-phosphocholine (POPC), and the net exotherm was recorded. The titration was repeated using POPC LUVs containing 10% ergosterol. […] The titration was repeated using C2′epiAmB. […] The ITC assay was also conducted with cholesterol in place of ergosterol.\nExperiments were performed using a NanoITC isothermal titration calorimeter (TA Instruments, Wilmington, Del.). Solutions of the compounds to be tested were prepared by diluting a 60.0 mM stock solution of the compound in DMSO to 600 μM with K buffer (5.0 mM HEPES/KHEPES, pH=7.4). The final DMSO concentration in the solution was 1% v/v. Large unilamellar vesicles comprised of only 1-palmitoyl-2-oleoyl-sn-glycero-3-phosphocholine (POPC LUVs) were prepared and phosphorus and ergosterol content was quantified as described below. The LUV solutions were diluted with buffer and DMSO to give a final phospholipid concentration of 12.0 mM in a 1% DMSO/K buffer solution. Immediately prior to use, all solutions were incubated at 37° C. for 30 minutes and degassed under vacuum at 37° C. for 10 minutes. The reference cell of the instrument (volume=0.190 mL) was filled with a solution of 1% v/v DMSO/K buffer.\nPalmitoyl oleoyl phosphatidylcholine (POPC) was obtained as a 20 mg/mL solution in CHCl3 from Avanti Polar Lipids (Alabaster, Ala.) and was stored at −20° C. under an atmosphere of dry argon and used within 1 month. A 4 mg/mL solution of ergosterol in CHCl3 was prepared monthly and stored at 4° C. under an atmosphere of dry argon. […]\nNanoAnalyze software (TA Instruments) was used for baseline determination and integration of the injection heats, and Microsoft Excel was used for subtraction of dilution heats and the calculation of overall heat evolved. […] By this method, the overall heat evolved during the experiment was calculated using the following formula: […]"}, "S. cerevisiae": {"test_system": "S. cerevisiae", "assay": "Broth microdilution MIC assay", "assay_type": "cell-based", "details": "Saccharomyces cerevisiae, 24 hours, 30° C., no visible growth", "description": "Exemplary methods for antifungal activity assays are as follows:\nS. cerevisiae was maintained with yeast peptone dextrose (YPD) growth media consisting of 10 g/L yeast extract, 20 g/L peptone, 20 g/L dextrose, and 20 g/L agar for solid media. The media was sterilized by autoclaving at 250° F. for 30 min. Dextrose was subsequently added as a sterile 40% w/v solution in water (dextrose solutions were filter sterilized). Solid media was prepared by pouring sterile media containing agar (20 g/L) onto Corning (Corning, N.Y.) 100×20 mm polystyrene plates. Liquid cultures were incubated at 30° C. on a rotary shaker and solid cultures were maintained at 30° C. in an incubator.\nThe protocol for the broth microdilution assay was adapted from the Clinical and Laboratory Standards Institute document M27-A2. Clinical and Laboratory Standards Institute. Reference Method for Broth Dilution Antifungal Susceptibility Testing, M27-A2, Approved Standard 2nd Ed. Vol. 22, Number 15, 2002. 50 mL of YPD media was inoculated and incubated overnight at either 30° C. (S. cerevisiae) or 37° C. (C. albicans) in a shaker incubator. The cell suspension was then diluted with YPD to an OD600 of 0.10 (˜5×10^5 cfu/mL) as measured by a Shimadzu (Kyoto, Japan) PharmaSpec UV-1700 UV/Vis spectrophotometer. […]"}, "C. albicans": {"test_system": "C. albicans", "assay": "Mouse model of disseminated candidiasis, kidney fungal burden", "assay_type": "in vivo", "details": "neutropenic mice, single intraperitoneal 16 mg/kg 2 hours post infection, kidneys at 24 hours post infection", "description": "FIG. 7 is a bar graph depicting kidney fungal load (colony forming units, CFUs) in neutropenic mice inoculated intravenously with C. albicans, and then treated two hours later with a single intraperitoneal dose of vehicle or 16 mg/kg AmB or C2′epiAmB.\nThe antifungal efficacy of C2′epiAmB was tested in a mouse model of disseminated candidiasis. In this experiment neutropenic mice were infected with C. albicans via their tail veins, and then 2 hours post infection the mice were treated with a single intraperitoneal injection of 16 mg/kg AmB or C2′epiAmB. Then at 24 hours post infection the mice were sacrificed, and the fungal burden present in their kidneys was quantified."}},
  "note": "“Also recorded” adds a separate entry of the source.",
  "data": [
    {"smiles": "C[C@@H]1[C@H](O)[C@@H](C)/C=C/C=C/C=C/C=C/C=C/C=C/C=C/[C@H](O[C@@H]2O[C@H](C)[C@@H](O)[C@H](N)[C@H]2O)CC2O[C@](O)(C[C@@H](O)C[C@@H](O)[C@H](O)CC[C@@H](O)C[C@@H](O)CC(=O)O[C@H]1C)C[C@H](O)[C@H]2C(=O)O", "note": "[C2′epiAmB]", "values": [
      {"measurement": "Total exotherm", "setting": "[1]; 10% cholesterol LUVs, 600 μM compound", "result": "-6.43 ± 2.80", "unit": "µcal"},
      {"measurement": "Binding to cholesterol (in words)", "setting": "[1]; within the limits of the binding assay", "result": "but not cholesterol; also recorded: not found to bind to cholesterol; also recorded: do not bind cholesterol"},
      {"measurement": "MIC", "setting": "S. cerevisiae", "result": 2, "unit": "µM"},
      {"measurement": "Reduction of kidney fungal burden relative to AmB", "setting": "C. albicans", "result": 0.5, "unit": "log units"}
    ]}
  ]
}
